How the values were obtained:
[1] = system: RCC-JW (Kidney Carcinoma); assay: Bliss excess, mean over the matrix (fraction); higher = more synergy
How it was run: (§1)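 After 24 hours at 37°C and 5% CO2 in 1536-well plates, cells in DMEM/F12 or RPMI plus 10% FBS received two-drug dose matrices for 72 hours. Viability came from CellTiter-Glo 2.0 luminescence and was scaled as inhibition, anchored at 0 by vehicle wells and at 1 by blank wells. Combination Emax is taken as the second-highest inhibition in the matrix, and Bliss excess as the observed combination effect less EA + EB − EA·EB, with EA and EB the single-agent effects.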

[2] = system: LCLC-103H (Non-Small Cell Lung Carcinoma); assay: as above
How it was run: as §1

[3] = system: CL-11 (Colorectal Carcinoma); assay: as above
How it was run: as §1

[4] = system: SAT (Head and Neck Carcinoma); assay: as above
How it was run: as §1

[5] = system: SNU-C2B (Colorectal Carcinoma); assay: as above
How it was run: as §1

KALS-1 (Glioblastoma) = assay: as above
How it was run: as §1

[6] = system: MS-1 (Small Cell Lung Carcinoma); assay: as above
How it was run: as §1

[7] = system: MOLT-13 (T-Lymphoblastic Leukemia); assay: as above
How it was run: as §1

[8] = system: SKG-IIIa (Cervical Carcinoma); assay: as above
How it was run: as §1

[9] = system: TUR (Acute Myeloid Leukemia); assay: as above
How it was run: as §1

[10] = system: SNU-407 (Colorectal Carcinoma); assay: as above
How it was run: as §1

[11] = system: NCI-H1341 (Small Cell Lung Carcinoma); assay: as above
How it was run: as §1

[12] = system: NCI-H3118 (Head and Neck Carcinoma); assay: as above
How it was run: as §1

UACC-257 (Melanoma) = assay: as above
How it was run: as §1

[13] = system: NCI-H596 (Other Solid Carcinomas); assay: as above
How it was run: as §1

[14] = system: MOLP-8 (Plasma Cell Myeloma); assay: combination Emax (second highest fraction inhibited in the dose matrix, 72 h); higher = more inhibition; extreme values may be limits of the assay
How it was run: as §1

[15] = system: P30-OHK (B-Lymphoblastic Leukemia); assay: as above
How it was run: as §1

[16] = system: NCI-H1963 (Small Cell Lung Carcinoma); assay: Bliss excess, mean over the matrix (fraction); higher = more synergy
How it was run: as §1
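Throughout, for Bliss excess, mean over the matrix: after 72 h of two-drug dosing.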

| Compound | Bliss excess [1] | Bliss excess [2] | Bliss excess [3] | Bliss excess [4] | Bliss excess [5] | Bliss excess (KALS-1 (Glioblastoma)) | Bliss excess [6] | Bliss excess [7] | Bliss excess [8] | Bliss excess [9] | Bliss excess [10] | Bliss excess [11] | Bliss excess [12] | Bliss excess (UACC-257 (Melanoma)) | Bliss excess [13] | combination Emax [14] | combination Emax [15] | Bliss excess [16] |
| --- | --- | --- | --- | --- | --- | --- | --- | --- | --- | --- | --- | --- | --- | --- | --- | --- | --- | --- |
| CN(C)CCCOc1ccc(-c2ccc3ncc4c(c3c2)n(C2CCOCC2)c(=O)n4C)cn1 [AZD0156] + O=C(c1cc(Cc2n[nH]c(=O)c3ccccc23)ccc1F)N1CCN(C(=O)C2CC2)CC1 [Olaparib] (first compound max 3 µM, partner max 3 µM) | 0.0299 | 0.0713 | 0.0647 | -0.0346 | 0.0054 | -0.0235 | 0.142 | 0.139 | -0.0324 | 0.0469 | -0.0122 | -0.0165 | 0.0479 | -0.0055 | 0.0282 | 0.67 | 0.668 | – |
| C=CCn1c(=O)c2cnc(Nc3ccc(N4CCN(C)CC4)cc3)nc2n1-c1cccc(C(C)(C)O)n1 [AZD1775] + C1CN(CCC1(C(=O)N[C@@H](CCO)C2=CC=C(C=C2)Cl)N)C3=NC=NC4=C3C=CN4 [Capivasertib] (first compound max 3 µM, partner max 3 µM) | -0.0527 | -0.0462 | -0.0499 | -0.0616 | -0.0573 | -0.0806 | 0.0208 | 0.0139 | -0.0139 | 0.0434 | -0.027 | -0.0538 | -0.0253 | -0.0383 | -0.0987 | 0.91 | 0.947 | – |
| COc1nnc2ccc(N3CCC(c4ccc(OCCN5CCN(C)C(=O)[C@H]5C)cc4)CC3)nn12 [AZD5153] + C=CCn1c(=O)c2cnc(Nc3ccc(N4CCN(C)CC4)cc3)nc2n1-c1cccc(C(C)(C)O)n1 [AZD1775] (first compound max 1 µM, partner max 1 µM) | -0.022 | -0.0128 | -0.0376 | -0.0305 | -0.035 | -0.12 | -0.0687 | -0.0319 | -0.0221 | -0.0252 | -0.0278 | -0.0121 | -0.0981 | 0.0034 | -0.131 | 0.956 | 1 | -0.0427 |
| COc1nnc2ccc(N3CCC(c4ccc(OCCN5CCN(C)C(=O)[C@H]5C)cc4)CC3)nn12 [AZD5153] + CC1(C)CCC(CN2CCN(c3ccc(C(=O)NS(=O)(=O)c4ccc(NCC5CCOCC5)c([N+](=O)[O-])c4)c(Oc4cnc5[nH]ccc5c4)c3)CC2)=C(c2ccc(Cl)cc2)C1 [Venetoclax] (first compound max 1 µM, 7x7, partner max 1 µM) | -0.0551 | -0.0404 | -0.0302 | -0.0525 | -0.0598 | -0.0418 | 0.0094 | 0.11 | -0.068 | -0.0224 | -0.0217 | -0.03 | -0.0517 | -0.0555 | -0.0701 | 0.945 | 1 | 0.0782 |
| COc1nnc2ccc(N3CCC(c4ccc(OCCN5CCN(C)C(=O)[C@H]5C)cc4)CC3)nn12 [AZD5153] + CCN(CCO)CCCOc1ccc2c(Nc3cc(CC(=O)Nc4cccc(F)c4)[nH]n3)ncnc2c1 [AZD2811] (first compound max 1 µM, 7x7, partner max 1 µM) | -0.0416 | -0.0104 | -0.0529 | -0.0368 | -0.0223 | -0.0911 | -0.0171 | -0.008 | -0.0193 | 0.131 | -0.0476 | 0.0041 | -0.0437 | 0.0076 | -0.0612 | 0.933 | 1 | -0.0585 |
| COc1nnc2ccc(N3CCC(c4ccc(OCCN5CCN(C)C(=O)[C@H]5C)cc4)CC3)nn12 [AZD5153] + CN(CC[C@H](CSC1=CC=CC=C1)NC2=C(C=C(C=C2)S(=O)(=O)NC(=O)C3=CC=C(C=C3)N4CCC(CC4)[C@H](C5=CC=CC=C5C6=CC=C(C=C6)Cl)O)S(=O)(=O)C(F)(F)F)CCO [AZD4320] (first compound max 1 µM, 7x7, partner max 1 µM) | – | – | 0.0136 | 0.0464 | 0.0215 | – | – | 0.0376 | – | 0.0533 | 0.0156 | 0.0454 | – | 0.0654 | 0.0028 | 0.98 | 1 | 0.0696 |
| COc1nnc2ccc(N3CCC(c4ccc(OCCN5CCN(C)C(=O)[C@H]5C)cc4)CC3)nn12 [AZD5153] + C[C@@H]1COCCN1C2=NC(=NC(=C2)C3(CC3)[S@](=N)(=O)C)C4=C5C=CNC5=NC=C4 [AZD6738] (first compound max 1 µM, 7x7, partner max 10 µM) | 0.0051 | 0.0525 | -0.0383 | 0.031 | 0.0233 | -0.0314 | -0.0701 | 0.02 | 0.0105 | -0.0046 | 0.003 | 0.0243 | -0.0879 | 0.0581 | -0.0028 | 0.987 | 1 | -0.0228 |
| COc1nnc2ccc(N3CCC(c4ccc(OCCN5CCN(C)C(=O)[C@H]5C)cc4)CC3)nn12 [AZD5153] + Cc1c2c(nn1C)CSCc1cc(n(C)n1)CSc1cc(c3ccccc3c1)OCCCc1c(C(=O)O)n(C)c3c-2c(Cl)ccc13 [AZD5991] (first compound max 1 µM, 7x7, partner max 1 µM) | -0.0078 | 0.0179 | -0.0499 | 0.0109 | -0.0319 | 0.0141 | -0.0151 | -0.0503 | -0.0782 | 0.0507 | -0.0996 | 0.0366 | -0.0602 | -0.019 | -0.0532 | 1 | 1 | 0.0125 |
| COc1nnc2ccc(N3CCC(c4ccc(OCCN5CCN(C)C(=O)[C@H]5C)cc4)CC3)nn12 [AZD5153] + Cn1cnc2c(F)c(Nc3ccc(Br)cc3Cl)c(C(=O)NOCCO)cc21 [Selumetinib] (first compound max 1 µM, 7x7, partner max 10 µM) | 0.0214 | 0.0325 | 0.0425 | 0.002 | 0.019 | -0.0421 | -0.0665 | 0.085 | 0.0128 | -0.0567 | -0.0175 | -0.0282 | -0.0164 | 0.0284 | -0.0344 | 0.98 | 0.999 | -0.0176 |
| NC1(C(=O)N[C@@H](CCO)c2ccc(Cl)cc2)CCN(c2ncnc3[nH]ccc23)CC1 [Capivasertib] + CC(=O)c1c(C)c2cnc(Nc3ccc(N4CCNCC4)cn3)nc2n(C2CCCC2)c1=O [Palbociclib] (first compound max 10 µM, 7x7, partner max 10 µM) | 0.0347 | -0.0146 | -0.0222 | -0.0203 | -0.16 | -0.0379 | -0.0055 | 0.0311 | -0.0489 | 0.0128 | -0.0267 | -0.0345 | 0.0463 | -0.0046 | -0.0856 | 0.655 | 0.56 | -0.0584 |
| NC1(C(=O)N[C@@H](CCO)c2ccc(Cl)cc2)CCN(c2ncnc3[nH]ccc23)CC1 [Capivasertib] + CC(C)n1c(=O)n(C)c2cnc3cc(F)c(-c4ccc(OCCCN5CCCCC5)nc4)cc3c21 [AZD1390] (first compound max 10 µM, 7x7, partner max 0.3 µM) | -0.0366 | -0.0712 | -0.0287 | -0.0275 | -0.0775 | -0.054 | 0.0169 | -0.037 | -0.104 | -0.0704 | -0.0261 | -0.0818 | -0.0572 | -0.0358 | -0.143 | 0.452 | 0.176 | -0.0615 |
| NC1(C(=O)N[C@@H](CCO)c2ccc(Cl)cc2)CCN(c2ncnc3[nH]ccc23)CC1 [Capivasertib] + CCN(CCO)CCCOc1ccc2c(Nc3cc(CC(=O)Nc4cccc(F)c4)[nH]n3)ncnc2c1 [AZD2811] (first compound max 10 µM, 7x7, partner max 1 µM) | -0.0014 | -0.0032 | -0.0034 | -0.0307 | -0.0032 | 0.0318 | 0.0059 | -0.0569 | -0.035 | 0.0286 | -0.0833 | -0.0036 | -0.0242 | 0.0028 | 0.017 | 0.583 | 0.886 | -0.023 |
| NC1(C(=O)N[C@@H](CCO)c2ccc(Cl)cc2)CCN(c2ncnc3[nH]ccc23)CC1 [Capivasertib] + COc1nnc2ccc(N3CCC(c4ccc(OCCN5CCN(C)C(=O)[C@H]5C)cc4)CC3)nn12 [AZD5153] (first compound max 10 µM, 7x7, partner max 1 µM) | 0.0516 | -0.0028 | -0.0206 | -0.0508 | -0.0442 | -0.0749 | -0.0737 | -0.0111 | 0.0067 | 0.0661 | -0.0269 | 0.0383 | -0.0144 | -0.0072 | -0.0136 | 1 | 1 | 0.0036 |
| CC(=O)c1c(C)c2cnc(Nc3ccc(N4CCNCC4)cn3)nc2n(C2CCCC2)c1=O [Palbociclib] + CN(CC[C@H](CSC1=CC=CC=C1)NC2=C(C=C(C=C2)S(=O)(=O)NC(=O)C3=CC=C(C=C3)N4CCC(CC4)[C@H](C5=CC=CC=C5C6=CC=C(C=C6)Cl)O)S(=O)(=O)C(F)(F)F)CCO [AZD4320] (first compound max 10 µM, 7x7, partner max 1 µM) | – | – | 0.0021 | -0.0941 | -0.0867 | – | – | -0.0216 | – | -0.0635 | -0.0556 | -0.008 | – | -0.0668 | -0.0578 | 0.542 | 0.967 | 0.0164 |
| C[C@@H](c1ccc2nccn2c1)n1nnc2ncc(-c3cnn(C)c3)nc21 [Savolitinib] + CN(CC[C@H](CSC1=CC=CC=C1)NC2=C(C=C(C=C2)S(=O)(=O)NC(=O)C3=CC=C(C=C3)N4CCC(CC4)[C@H](C5=CC=CC=C5C6=CC=C(C=C6)Cl)O)S(=O)(=O)C(F)(F)F)CCO [AZD4320] (first compound max 1 µM, 7x7, partner max 1 µM) | – | – | -0.0216 | -0.0345 | -0.101 | – | – | -0.0166 | – | -0.0188 | -0.319 | 0.0128 | – | -0.0529 | -0.018 | 0.216 | 0.948 | 0.0022 |

— the supplement of paper PMC11061612
